system: pERK; test: p-ERK level in PC9 cells (AlphaLISA SureFire Ultra p-ERK1/2); type: cell-based; conditions: Homo sapiens, PC-9, 1 h, read-out: SOS1 pERK IC50
Protocol: PC9 cells were seeded in 384-well cell culture plate (40 μL/well) according to a certain concentration and placed in a cell culture incubator with 37° C. and 5% CO2 overnight. On the next day, the plate was added with serially diluted test compounds (5 concentrations, 3-fold dilution, the highest concentration was 10 uM) for 1 hour, and then the lysate containing protease and phosphatase inhibitor was added to lyse the cells-extracted proteins, cellular pERK levels were measured using the AlphaLISASureFire Ultra p ERK1/2 assay kit (PerkinElmer). The standard AlphaLISA settings on the Envision plate reader (PerkinElmer) was used to read the signal. Raw data were analyzed in Excel (Microsoft) and Prism (GraphPad). The signal was plotted against the common logarithm of compound concentration and IC50 was calculated by fitting a four parameter non-linear regression curve.

Structure (SMILES)	IC50 [nM]
COC1(c2cc3c(N[C@H](C)c4cc(N)cc(C(F)(F)F)c4)nc(C)nc3n3ccnc23)CC2CCC(C1)N2C(=O)C(C)C (stereo partly shown) [Example 91]	< 1000
COC1(c2cc3c(N[C@H](C)c4cc(N)cc(C(F)(F)F)c4)nc(C)nc3n3ccnc23)CC2CCC(C1)N2C (stereo partly shown) [Example 92]	< 1000
COC1(c2cc3c(N[C@H](C)c4cc(N)cc(C(F)(F)F)c4)nc(C)nc3n3ccnc23)CC2CCC(C1)N2C(C)C (stereo partly shown) [Example 93]	< 1000
CC(=O)N1CCC(O)(c2cc3c(N[C@H](C)c4cc(N)cc(C(F)(F)F)c4)nc(C)nc3n3ccnc23)CC1 [Example 85, (R)-1-(4-(4-((1-(3-amino-5-(trifluoromethyl)phenyl)ethyl)amino)-2-methylimidazole [1′,2′:1,6]pyrido [2,3-d]pyrimidin-6-yl)-4-hydroxypiperidin-1-yl) ethyl-1-one]	< 1000

same assay, conditions: Homo sapiens, PC-9; PC9 cells, 1 hour compound treatment; read-out: SOS1 pERK IC50

Structure (SMILES)	IC50 [nM]
COC1(c2cc3c(N[C@H](C)c4cccc(C(F)(F)F)c4C)nc(C)nc3n3ccnc23)CCN(C(C)C)CC1 [Example 81]	< 1000
COC1(c2cc3c(N[C@H](C)c4cc(N)cc(C(F)(F)F)c4)nc(C)nc3n3ccnc23)CCOCC1 [Example 75]	< 1000
Cc1nc(N[C@H](C)c2cccc(C(F)(F)F)c2C)c2cc(C3(C#N)CCS(=O)(=O)CC3)c3nccn3c2n1 [Example 80]	< 1000
COC1(c2cc3c(N[C@H](C)c4cccc(C(F)(F)F)c4C)nc(C)nc3n3ccnc23)CCOCC1 [Example 79]	< 1000
COC1(c2cc3c(N[C@H](C)c4cc(N)cc(C(F)(F)F)c4)nc(C)nc3n3ccnc23)CCN(C(C)=O)CC1 [Example 76]	< 1000

More lines, now with the values ahead:

IC50 [nM]	Structure (SMILES)
< 1000	COC1(c2cc3c(N[C@H](C)c4cc(N)cc(C(F)(F)F)c4)nc(C)nc3n3ccnc23)CCS(=O)(=O)CC1 [Example 77]
< 1000	Cc1nc(N[C@H](C)c2cc(N)cc(C(F)(F)F)c2)c2cc(C3(C#N)CCN(C(=O)C(C)C)CC3)c3nccn3c2n1 [Example 90]
< 1000	COC1(c2cc3c(N[C@H](C)c4cc(N)cc(C(F)(F)F)c4)nc(C)nc3n3ccnc23)CCN(C(=O)C(C)C)CC1 [Example 89]
< 1000	Cc1nc(N[C@H](C)c2cc(N)cc(C(F)(F)F)c2)c2cc(C3(C#N)CCS(=O)(=O)CC3)c3nccn3c2n1 [Example 78]
